Measurements reported in PubChem BioAssay AID2060325 (Molecular Pharmacology Branch, DTP, NCI, 2025).

Test system: SK-OV-3 multi-cell spheroids, viability
Test: Anticancer human tumor SK-OV-3 cell line growth inhibition [IpAb];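 for viability, T/C: viability read after seven days of drug exposure; percent of DMSO vehicle control luminescence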
Conditions: for IC50: curve of first compound; for viability, T/C: stronger effect = lower value
In short: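 Multi-cell spheroids of 60% tumour cells, 25% HUVEC and 15% MSC in ultra-low-attachment U-bottom wells, treated with agents combined with ipatasertib or abemaciclib. Half-log ranges top out near clinical Cmax, or 10 microM when Cmax is unknown.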

## CC(C)n1nc(-c2ccc3oc(N)nc3c2)c2c(N)ncnc21 + CCN1CCN(Cc2ccc(Nc3ncc(F)c(-c4cc(F)c5nc(C)n(C(C)C)c5c4)n3)nc2)CC1
Second compound 0.01 µM
  IC50: 1.65 nM
Second compound 0.0316 µM
  IC50: 1.23 nM
Second compound 0.1 µM
  IC50: 0.577 nM
Second compound 0.316 µM
  IC50: 0.381 nM
Second compound 1 µM
  IC50: < 0.316 nM
Second compound 0.01 µM, first compound 0.000316 µM
  viability, T/C: 76.7%
Second compound 0.01 µM, first compound 0.001 µM
  viability, T/C: 59.3%
Second compound 0.01 µM, first compound 0.00316 µM
  viability, T/C: 37.8%
Second compound 0.01 µM, first compound 0.01 µM
  viability, T/C: 19%
Second compound 0.01 µM, first compound 0.0316 µM
  viability, T/C: 8.77%
Second compound 0.01 µM, first compound 0.1 µM
  viability, T/C: 7.65%
Second compound 0.0316 µM, first compound 0.000316 µM
  viability, T/C: 64.4%
Second compound 0.0316 µM, first compound 0.001 µM
  viability, T/C: 54.8%
Second compound 0.0316 µM, first compound 0.00316 µM
  viability, T/C: 31.3%
Second compound 0.0316 µM, first compound 0.01 µM
  viability, T/C: 16.1%
Second compound 0.0316 µM, first compound 0.0316 µM
  viability, T/C: 11.6%
Second compound 0.0316 µM, first compound 0.1 µM
  viability, T/C: 7.01%
Second compound 0.1 µM, first compound 0.000316 µM
  viability, T/C: 55.4%
Second compound 0.1 µM, first compound 0.001 µM
  viability, T/C: 45.4%
Second compound 0.1 µM, first compound 0.00316 µM
  viability, T/C: 28.1%
Second compound 0.1 µM, first compound 0.01 µM
  viability, T/C: 16%
Second compound 0.1 µM, first compound 0.0316 µM
  viability, T/C: 10.8%
Second compound 0.1 µM, first compound 0.1 µM
  viability, T/C: 7.2%
Second compound 0.316 µM, first compound 0.000316 µM
  viability, T/C: 51.5%
Second compound 0.316 µM, first compound 0.001 µM
  viability, T/C: 41.4%
Second compound 0.316 µM, first compound 0.00316 µM
  viability, T/C: 26.2%
Second compound 0.316 µM, first compound 0.01 µM
  viability, T/C: 18.1%
Second compound 0.316 µM, first compound 0.0316 µM
  viability, T/C: 14.3%
Second compound 0.316 µM, first compound 0.1 µM
  viability, T/C: 9.24%
Second compound 1 µM, first compound 0.000316 µM
  viability, T/C: 40.7%
Second compound 1 µM, first compound 0.001 µM
  viability, T/C: 34.2%
Second compound 1 µM, first compound 0.00316 µM
  viability, T/C: 27.9%
Second compound 1 µM, first compound 0.01 µM
  viability, T/C: 21.2%
Second compound 1 µM, first compound 0.0316 µM
  viability, T/C: 15.9%
Second compound 1 µM, first compound 0.1 µM
  viability, T/C: 13.2%
